# Test results from US20230183234A1, “IAP ANTAGONIST COMPOUNDS AND INTERMEDIATES AND METHODS FOR SYNTHESIZING THE SAME” (Otsuka Pharmaceutical Co., Ltd., priority 2020, published 2023).
# Test: Storage stability: level of aldehyde impurity of formula (XXV), HPLC peak at RRT 1.3
# Type: physicochemical
# Settings: stored at 2-8° C.
# Method: Based on experimental data, there is a correlation between the palladium content in the final end-product and drug substance of formula (XXIII) and the oxidative degradation of an aldehyde impurity. […] The degradation is manifested as an aldehyde impurity peak of formula (XXV) appearing at a relative retention time (RRT) of 1.3.
# This impurity peak is found to be no more than 0.2% a/a when stored at 2-8° C., but higher levels are observed at elevated temperatures. The experimental results are depicted in FIGS. 6-7 and Tables 1, 4 and 5 for drug substance lots and corresponding formulations outlined in Tables 1-3.
# The stability data and effect of palladium content on aldehyde impurity represented by the area percent of RRT 1.3 at a storage condition of 25° C. and 60% RH is provided in Table 4 and FIG. 6.
# The effect of temperature on stability and the level of aldehyde impurity represented by the area percent of RRT 1.3 is provided in Table 5 and FIG. 7.
structure (smiles),measurement,value
C[C@@H]1CN(CC(=O)N2CC(C)(C)c3nc(CO)c(Cc4ccc(F)cc4)cc32)[C@@H](CN2CCOC[C@H]2C)CN1.C[C@H](O)C(=O)O [formula (XXIII)],impurity peak level at RRT 1.3 (aldehyde impurity of formula (XXV)),no more than 0.2 % a/a
